Like-named read-outs stand apart in the source and are kept apart here.
Legend:
Experiment in all cases: HotSpot kinase profiling
Type in all cases: biochemical
GLK/MAP4K3 = target: T1, GLK/MAP4K3 (Homo sapiens, UniProt Q8IVH8)
T1 construct: purchased Reaction Biology Corp
T1 sequence (Q8IVH8 1-894): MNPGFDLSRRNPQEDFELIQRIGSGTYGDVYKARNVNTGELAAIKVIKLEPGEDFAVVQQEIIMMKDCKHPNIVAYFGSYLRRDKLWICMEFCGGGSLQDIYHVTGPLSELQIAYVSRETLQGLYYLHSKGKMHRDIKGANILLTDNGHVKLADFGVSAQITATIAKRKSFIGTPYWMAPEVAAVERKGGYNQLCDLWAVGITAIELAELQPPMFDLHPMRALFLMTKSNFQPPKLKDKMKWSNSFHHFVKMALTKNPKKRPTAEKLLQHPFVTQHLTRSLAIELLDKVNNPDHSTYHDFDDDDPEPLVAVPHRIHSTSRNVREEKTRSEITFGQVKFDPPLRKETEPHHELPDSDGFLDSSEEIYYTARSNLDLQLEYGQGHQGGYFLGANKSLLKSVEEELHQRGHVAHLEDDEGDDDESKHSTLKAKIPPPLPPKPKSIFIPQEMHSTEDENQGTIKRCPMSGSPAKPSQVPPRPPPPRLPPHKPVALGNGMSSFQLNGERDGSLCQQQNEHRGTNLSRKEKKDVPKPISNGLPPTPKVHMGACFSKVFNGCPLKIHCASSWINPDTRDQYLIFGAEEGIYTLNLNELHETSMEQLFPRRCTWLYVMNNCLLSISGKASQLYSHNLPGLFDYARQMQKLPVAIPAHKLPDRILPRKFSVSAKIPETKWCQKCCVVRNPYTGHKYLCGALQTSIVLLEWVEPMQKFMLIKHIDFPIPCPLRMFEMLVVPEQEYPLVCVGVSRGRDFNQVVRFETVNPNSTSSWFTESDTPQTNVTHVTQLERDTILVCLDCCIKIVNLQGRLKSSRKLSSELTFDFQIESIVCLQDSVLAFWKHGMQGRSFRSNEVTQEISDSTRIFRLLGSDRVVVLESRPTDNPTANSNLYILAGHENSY
Outline: (§1)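 Percent inhibition, averaged when run more than once and referenced to a DMSO negative control, came from a radioactive filter-binding readout on P81 paper. Reactions of kinase with freshly made substrate and cofactors ran for 2 h at room temperature.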

JAK1 = target: T2, JAK1 (Homo sapiens, UniProt P23458)
T2 construct: purchased Reaction Biology Corp
T2 sequence (P23458 whole entry): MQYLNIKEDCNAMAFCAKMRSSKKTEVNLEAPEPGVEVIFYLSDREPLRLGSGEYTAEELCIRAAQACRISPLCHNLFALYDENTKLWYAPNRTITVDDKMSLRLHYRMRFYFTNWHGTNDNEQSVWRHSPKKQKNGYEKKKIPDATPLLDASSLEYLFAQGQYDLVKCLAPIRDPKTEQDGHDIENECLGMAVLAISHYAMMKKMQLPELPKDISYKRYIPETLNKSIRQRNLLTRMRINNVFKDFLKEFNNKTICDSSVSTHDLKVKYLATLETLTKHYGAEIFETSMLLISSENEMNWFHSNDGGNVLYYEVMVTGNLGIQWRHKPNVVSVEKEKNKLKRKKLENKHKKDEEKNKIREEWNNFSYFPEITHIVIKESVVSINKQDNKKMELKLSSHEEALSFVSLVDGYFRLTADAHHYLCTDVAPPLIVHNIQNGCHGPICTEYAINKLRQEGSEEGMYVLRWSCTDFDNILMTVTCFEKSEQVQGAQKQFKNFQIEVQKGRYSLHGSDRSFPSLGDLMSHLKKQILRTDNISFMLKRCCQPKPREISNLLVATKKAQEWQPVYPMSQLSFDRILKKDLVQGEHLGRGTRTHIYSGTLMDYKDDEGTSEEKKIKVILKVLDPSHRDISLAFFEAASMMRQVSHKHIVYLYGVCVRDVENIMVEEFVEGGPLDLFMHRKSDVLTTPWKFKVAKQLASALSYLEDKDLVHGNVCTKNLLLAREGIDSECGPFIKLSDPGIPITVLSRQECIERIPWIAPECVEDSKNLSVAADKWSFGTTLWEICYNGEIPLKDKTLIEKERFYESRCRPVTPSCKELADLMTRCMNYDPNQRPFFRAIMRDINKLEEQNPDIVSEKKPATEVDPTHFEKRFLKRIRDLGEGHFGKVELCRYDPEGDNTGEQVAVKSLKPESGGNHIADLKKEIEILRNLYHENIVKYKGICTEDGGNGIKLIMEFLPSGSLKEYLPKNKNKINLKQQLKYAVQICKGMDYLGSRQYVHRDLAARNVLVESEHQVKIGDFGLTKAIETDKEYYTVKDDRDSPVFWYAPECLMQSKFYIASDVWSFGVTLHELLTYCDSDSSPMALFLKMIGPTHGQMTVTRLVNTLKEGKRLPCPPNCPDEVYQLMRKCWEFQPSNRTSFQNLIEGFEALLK
Outline: as §1

MLK2/MAP3K10 = target: T3, MLK2/MAP3K10 (Homo sapiens, UniProt Q02779)
T3 construct: purchased Reaction Biology Corp
T3 sequence (Q02779 whole entry): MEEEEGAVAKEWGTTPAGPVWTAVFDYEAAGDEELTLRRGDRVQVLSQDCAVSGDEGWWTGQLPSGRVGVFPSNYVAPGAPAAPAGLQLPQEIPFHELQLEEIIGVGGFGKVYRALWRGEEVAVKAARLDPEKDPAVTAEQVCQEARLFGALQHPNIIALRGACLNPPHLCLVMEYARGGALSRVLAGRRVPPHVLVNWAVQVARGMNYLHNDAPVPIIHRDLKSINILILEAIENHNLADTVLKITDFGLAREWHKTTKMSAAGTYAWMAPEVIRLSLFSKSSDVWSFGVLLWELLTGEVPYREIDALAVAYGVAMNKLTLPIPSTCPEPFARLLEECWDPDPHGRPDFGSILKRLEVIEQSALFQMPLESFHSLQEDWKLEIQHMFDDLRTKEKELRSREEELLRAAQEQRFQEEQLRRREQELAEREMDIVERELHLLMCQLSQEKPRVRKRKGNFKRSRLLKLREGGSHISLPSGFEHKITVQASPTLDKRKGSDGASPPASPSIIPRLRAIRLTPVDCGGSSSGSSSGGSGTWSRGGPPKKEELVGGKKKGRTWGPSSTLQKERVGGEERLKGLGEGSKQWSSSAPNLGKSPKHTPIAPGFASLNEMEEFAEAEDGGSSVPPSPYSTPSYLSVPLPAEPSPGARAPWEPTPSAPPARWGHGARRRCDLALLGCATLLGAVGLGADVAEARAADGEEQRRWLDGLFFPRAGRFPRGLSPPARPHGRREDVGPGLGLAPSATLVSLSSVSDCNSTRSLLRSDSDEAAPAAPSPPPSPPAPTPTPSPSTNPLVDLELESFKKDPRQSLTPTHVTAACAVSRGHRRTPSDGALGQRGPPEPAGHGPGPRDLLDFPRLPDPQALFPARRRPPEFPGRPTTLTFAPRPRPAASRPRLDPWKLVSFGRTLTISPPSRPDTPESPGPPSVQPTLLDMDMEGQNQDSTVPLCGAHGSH
Outline: as §1

MSK2/RPS6KA4 = target: T4, MSK2/RPS6KA4 (Homo sapiens, UniProt O75676)
T4 construct: purchased Reaction Biology Corp
T4 sequence (O75676 whole entry): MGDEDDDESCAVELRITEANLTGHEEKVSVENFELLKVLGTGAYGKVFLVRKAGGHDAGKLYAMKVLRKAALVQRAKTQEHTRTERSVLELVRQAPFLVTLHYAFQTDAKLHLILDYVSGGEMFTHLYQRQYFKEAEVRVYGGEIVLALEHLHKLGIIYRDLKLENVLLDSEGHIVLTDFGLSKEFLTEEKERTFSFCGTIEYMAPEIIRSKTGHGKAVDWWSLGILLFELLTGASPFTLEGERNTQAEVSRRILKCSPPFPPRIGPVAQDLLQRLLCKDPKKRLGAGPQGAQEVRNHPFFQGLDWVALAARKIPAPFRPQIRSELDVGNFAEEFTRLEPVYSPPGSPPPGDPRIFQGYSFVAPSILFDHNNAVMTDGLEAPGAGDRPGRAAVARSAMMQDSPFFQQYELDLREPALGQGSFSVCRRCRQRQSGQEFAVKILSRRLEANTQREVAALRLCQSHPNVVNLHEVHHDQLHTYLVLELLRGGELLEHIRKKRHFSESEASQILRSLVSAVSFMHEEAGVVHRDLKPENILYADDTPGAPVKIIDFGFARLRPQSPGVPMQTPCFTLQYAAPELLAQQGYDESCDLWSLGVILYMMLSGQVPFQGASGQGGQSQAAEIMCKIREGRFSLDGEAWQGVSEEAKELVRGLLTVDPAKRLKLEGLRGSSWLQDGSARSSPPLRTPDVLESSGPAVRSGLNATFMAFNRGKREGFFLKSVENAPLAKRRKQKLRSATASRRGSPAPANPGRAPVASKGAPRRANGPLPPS
Outline: as §1

MUSK = target: T5, MUSK (Homo sapiens, UniProt O15146)
T5 construct: purchased Reaction Biology Corp
T5 sequence (O15146 24-869): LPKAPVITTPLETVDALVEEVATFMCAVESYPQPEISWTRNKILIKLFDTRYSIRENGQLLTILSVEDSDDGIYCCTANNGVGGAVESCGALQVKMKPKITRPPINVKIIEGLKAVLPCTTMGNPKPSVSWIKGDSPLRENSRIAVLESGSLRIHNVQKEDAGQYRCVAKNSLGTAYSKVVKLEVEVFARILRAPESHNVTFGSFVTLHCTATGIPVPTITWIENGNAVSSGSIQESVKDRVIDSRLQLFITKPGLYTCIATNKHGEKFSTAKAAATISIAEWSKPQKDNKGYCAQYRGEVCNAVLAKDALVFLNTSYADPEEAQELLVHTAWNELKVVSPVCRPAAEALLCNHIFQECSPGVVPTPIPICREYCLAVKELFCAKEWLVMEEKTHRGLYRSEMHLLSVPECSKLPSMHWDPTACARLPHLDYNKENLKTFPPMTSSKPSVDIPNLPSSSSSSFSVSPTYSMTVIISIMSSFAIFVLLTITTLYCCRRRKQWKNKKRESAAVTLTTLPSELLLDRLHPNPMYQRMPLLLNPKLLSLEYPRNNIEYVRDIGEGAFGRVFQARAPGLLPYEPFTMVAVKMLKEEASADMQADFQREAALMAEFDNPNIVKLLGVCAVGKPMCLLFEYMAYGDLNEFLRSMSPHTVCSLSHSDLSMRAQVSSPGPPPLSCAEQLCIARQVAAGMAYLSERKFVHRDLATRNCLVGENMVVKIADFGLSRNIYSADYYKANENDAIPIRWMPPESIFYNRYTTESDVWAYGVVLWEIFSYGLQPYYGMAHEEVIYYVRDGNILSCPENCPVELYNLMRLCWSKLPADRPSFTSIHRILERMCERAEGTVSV
Outline: as §1

STK32C/YANK3 = target: T6, STK32C/YANK3 (Homo sapiens, UniProt Q86UX6)
T6 construct: purchased Reaction Biology Corp
T6 sequence (Q86UX6 whole entry): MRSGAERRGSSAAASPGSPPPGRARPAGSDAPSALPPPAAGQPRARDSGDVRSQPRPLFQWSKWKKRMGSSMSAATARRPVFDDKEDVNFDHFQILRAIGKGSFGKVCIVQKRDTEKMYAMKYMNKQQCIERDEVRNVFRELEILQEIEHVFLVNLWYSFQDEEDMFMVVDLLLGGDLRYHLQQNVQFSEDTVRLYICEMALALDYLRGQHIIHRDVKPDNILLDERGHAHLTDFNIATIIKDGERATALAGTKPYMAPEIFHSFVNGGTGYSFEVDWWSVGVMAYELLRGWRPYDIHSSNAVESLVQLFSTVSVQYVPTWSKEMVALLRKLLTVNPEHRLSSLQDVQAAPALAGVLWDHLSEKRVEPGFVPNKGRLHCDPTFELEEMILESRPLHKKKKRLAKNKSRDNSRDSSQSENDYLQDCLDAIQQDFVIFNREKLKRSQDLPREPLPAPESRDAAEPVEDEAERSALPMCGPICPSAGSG
Outline: as §1

TGFBR2 = target: T7, TGFBR2 (Homo sapiens, UniProt P37173)
T7 construct: purchased Reaction Biology Corp
T7 sequence (P37173 23-567): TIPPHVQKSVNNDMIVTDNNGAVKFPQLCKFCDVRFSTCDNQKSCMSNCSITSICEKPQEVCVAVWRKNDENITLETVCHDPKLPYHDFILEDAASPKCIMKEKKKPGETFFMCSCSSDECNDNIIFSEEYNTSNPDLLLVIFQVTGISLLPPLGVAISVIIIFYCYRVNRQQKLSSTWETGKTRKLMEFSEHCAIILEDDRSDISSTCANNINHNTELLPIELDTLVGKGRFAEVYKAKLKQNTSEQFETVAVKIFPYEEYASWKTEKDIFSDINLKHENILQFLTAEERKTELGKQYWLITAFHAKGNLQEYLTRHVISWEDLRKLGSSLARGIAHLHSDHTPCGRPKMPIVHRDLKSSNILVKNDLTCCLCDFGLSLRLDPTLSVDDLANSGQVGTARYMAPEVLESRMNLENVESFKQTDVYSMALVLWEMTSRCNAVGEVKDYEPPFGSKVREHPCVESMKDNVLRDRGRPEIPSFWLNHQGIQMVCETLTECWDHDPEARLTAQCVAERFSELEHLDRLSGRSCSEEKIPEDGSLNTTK
Outline: as §1

TRKC = target: T8, TRKC (Homo sapiens, UniProt Q16288)
T8 construct: purchased Reaction Biology Corp
T8 sequence (Q16288 32-839): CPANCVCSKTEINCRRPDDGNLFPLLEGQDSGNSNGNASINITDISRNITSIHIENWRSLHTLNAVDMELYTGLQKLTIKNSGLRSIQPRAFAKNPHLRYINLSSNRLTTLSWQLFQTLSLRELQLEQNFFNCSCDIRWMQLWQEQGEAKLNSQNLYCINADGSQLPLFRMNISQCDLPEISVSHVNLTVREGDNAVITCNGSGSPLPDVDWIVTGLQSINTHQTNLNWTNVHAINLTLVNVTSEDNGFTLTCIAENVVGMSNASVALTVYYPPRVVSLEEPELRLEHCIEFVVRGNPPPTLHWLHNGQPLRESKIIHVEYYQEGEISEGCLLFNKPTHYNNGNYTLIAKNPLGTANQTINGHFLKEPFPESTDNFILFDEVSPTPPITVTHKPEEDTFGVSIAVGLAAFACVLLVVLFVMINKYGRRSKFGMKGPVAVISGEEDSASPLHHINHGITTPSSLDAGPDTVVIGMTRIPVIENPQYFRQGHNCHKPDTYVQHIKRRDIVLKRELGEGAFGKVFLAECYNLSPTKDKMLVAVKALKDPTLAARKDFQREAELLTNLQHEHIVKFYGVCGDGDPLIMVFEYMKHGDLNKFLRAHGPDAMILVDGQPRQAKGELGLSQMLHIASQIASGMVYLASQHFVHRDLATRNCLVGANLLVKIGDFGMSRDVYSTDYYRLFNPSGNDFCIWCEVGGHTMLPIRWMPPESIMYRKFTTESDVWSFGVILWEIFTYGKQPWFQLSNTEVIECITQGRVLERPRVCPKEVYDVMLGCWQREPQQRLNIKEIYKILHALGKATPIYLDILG
Outline: as §1

[1] = read-out: % Enzyme Activity (relative to DMSO controls) Run 1
[2] = read-out: % Enzyme Activity (relative to DMSO controls) Run 2

Q: How did the inhibition at 3 µM (GLK/MAP4K3) turn out when `C=CC(=O)Nc1cccc(Nc2nc(Nc3ccc(OCCOC)c(F)c3)ncc2F)c1` [Compound 2] was run?
A: Its inhibition at 3 µM is -5.08%.

Q: What about the remaining activity at 3 µM (GLK/MAP4K3; [1]) of the same compound?
A: Its remaining activity at 3 µM is 102%.

Q: What about the remaining activity at 3 µM (GLK/MAP4K3; [2]) of the same compound?
A: The remaining activity at 3 µM was 108%.

Q: What about the inhibition at 3 µM (JAK1) of the same compound?
A: The inhibition at 3 µM was 40.6%.

Q: What about the remaining activity at 3 µM (JAK1; [1]) of the same compound?
A: The remaining activity at 3 µM was 59.7%.

Q: And the remaining activity at 3 µM (JAK1; [2])?
A: Its remaining activity at 3 µM is 59%.

Q: What about the inhibition at 3 µM (MLK2/MAP3K10) of the same compound?
A: The inhibition at 3 µM was 54.6%.

Q: And the remaining activity at 3 µM (MLK2/MAP3K10; [1])?
A: Its remaining activity at 3 µM is 45.4%.

Q: What about the remaining activity at 3 µM (MLK2/MAP3K10; [2]) of the same compound?
A: The remaining activity at 3 µM was 45.3%.

Q: And the inhibition at 3 µM (MSK2/RPS6KA4)?
A: Its inhibition at 3 µM is -0.36%.

Q: And the remaining activity at 3 µM (MSK2/RPS6KA4; [1])?
A: The remaining activity at 3 µM was 103%.

Q: And the remaining activity at 3 µM (MSK2/RPS6KA4; [2])?
A: Its remaining activity at 3 µM is 97.4%.

Q: What about the inhibition at 3 µM (MUSK) of the same compound?
A: The inhibition at 3 µM was 30.9%.

Q: What about the remaining activity at 3 µM (MUSK; [1]) of the same compound?
A: The remaining activity at 3 µM was 70.2%.

Q: And the remaining activity at 3 µM (MUSK; [2])?
A: Its remaining activity at 3 µM is 68%.

Q: And the inhibition at 3 µM (STK32C/YANK3)?
A: Its inhibition at 3 µM is -6.01%.

Q: What about the remaining activity at 3 µM (STK32C/YANK3; [1]) of the same compound?
A: The remaining activity at 3 µM was 105%.

Q: And the remaining activity at 3 µM (STK32C/YANK3; [2])?
A: The remaining activity at 3 µM was 107%.

Q: What about the inhibition at 3 µM (TGFBR2) of the same compound?
A: Its inhibition at 3 µM is -0.19%.

Q: And the remaining activity at 3 µM (TGFBR2; [1])?
A: Its remaining activity at 3 µM is 98.1%.

Q: And the remaining activity at 3 µM (TGFBR2; [2])?
A: The remaining activity at 3 µM was 102%.

Q: What about the inhibition at 3 µM (TRKC) of the same compound?
A: The inhibition at 3 µM was 66.3%.

Q: What about the remaining activity at 3 µM (TRKC; [1]) of the same compound?
A: The remaining activity at 3 µM was 35.1%.

Q: What about the remaining activity at 3 µM (TRKC; [2]) of the same compound?
A: Its remaining activity at 3 µM is 32.3%.

— patent publication US9492471B2, “Methods of treating a disease or disorder associated with Bruton'S Tyrosine Kinase” (Celgene Avilomics Research, Inc., priority 2013, dated 2016)
